Data reported in paper PMC12518693, “Potent Fluorescent Probe for Target‐Engagement Studies of Allosteric Pyruvate Kinase Modulators” (Angewandte Chemie (International Ed. in English), 2025).

Columns and labels:
HEK293 cells = assay: Photostability in HEK293 cells under continuous 488 nm irradiation; assay type: cell-based; details: HEK293, 1 µM, 2 h, continuous 488 nm scanning 10 min
Protocol: Photostability of tracer IV was subsequently evaluated by treating HEK293 cells with the tracer (1 µM) for 2 h, followed by continuous scanning using 488 nm laser excitation for 10 min.
Figure S7. Photobleaching curve of compound IV (1 µM) in HEK293 cells under continuous laser irradiation. HEK293 cells were exposed to continuous excitation at 488 nm for 10 minutes using the same imaging settings as applied throughout this study. Integrated fluorescence intensity was recorded over time from an identical region of interest (ROI) across the time-lapse images to assess photostability.

PKM2 = PKM2 (Homo sapiens, UniProt P14618); assay: Recombinant PKM2 activity assay (Kinase-Glo MAX); assay type: biochemical; set-up: made in house
Sequence of PKM2 (P14618 whole entry): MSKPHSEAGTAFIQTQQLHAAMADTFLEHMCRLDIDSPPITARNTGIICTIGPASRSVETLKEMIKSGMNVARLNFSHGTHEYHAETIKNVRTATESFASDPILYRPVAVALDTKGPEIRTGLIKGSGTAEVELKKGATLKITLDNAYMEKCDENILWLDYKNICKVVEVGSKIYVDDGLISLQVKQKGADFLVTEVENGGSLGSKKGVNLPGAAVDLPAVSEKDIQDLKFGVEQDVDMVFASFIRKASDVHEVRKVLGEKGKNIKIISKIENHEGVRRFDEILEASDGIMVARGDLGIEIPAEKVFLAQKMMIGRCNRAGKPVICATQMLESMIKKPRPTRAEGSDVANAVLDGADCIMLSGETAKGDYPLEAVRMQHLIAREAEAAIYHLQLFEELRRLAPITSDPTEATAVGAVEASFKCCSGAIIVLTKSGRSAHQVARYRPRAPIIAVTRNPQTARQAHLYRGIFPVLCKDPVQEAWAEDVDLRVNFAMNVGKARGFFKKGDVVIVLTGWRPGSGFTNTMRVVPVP
Protocol: As these compounds were binding to a known allosteric site on PK, the effects of ligands I–IV on the enzymatic activities of PKL and PKM2 were determined (Figure S2). The two isozymes were incubated with increasing concentrations of compounds before the addition of substrates PEP and adenosine diphosphate (ADP), and the reactions were monitored using a Kinase‐Glo MAX assay.
Figure S2. Effects of ligands I-IV on recombinant PK activities. PKL or PKM2 (10 nM) were pre-incubated with the compounds (0-100 µM) for 15 min following the addition of PEP (0.1 mM) and ADP (0.2 mM). The reactions were terminated by the addition of Kinase Glo-MAX reagent after 10 min, and the luminescence from each reaction was quantified using a plate reader. The activity values are expressed as a percentage of PK activity of the DMSO control. The potencies were calculated by best fit of the Hill equation to the luminescence data.^[2] (A) PKL titrations. (B) PKM2 titrations. Error bars represent the ±SE of replicates (n = 3).

PKL = PKL (Homo sapiens, UniProt P30613); assay: Fluorescence indication titration of tracer IV; assay type: binding; set-up: co-crystallisation of full-length PKL (including the B-domain); 8xHis (TEV-cleavable) (N, cleaved yes); made in house; host or cells: E. coli T7 Express (NEB), pExp-NHis plasmid
Sequence of PKL (P30613 1-543 isoform P30613-2): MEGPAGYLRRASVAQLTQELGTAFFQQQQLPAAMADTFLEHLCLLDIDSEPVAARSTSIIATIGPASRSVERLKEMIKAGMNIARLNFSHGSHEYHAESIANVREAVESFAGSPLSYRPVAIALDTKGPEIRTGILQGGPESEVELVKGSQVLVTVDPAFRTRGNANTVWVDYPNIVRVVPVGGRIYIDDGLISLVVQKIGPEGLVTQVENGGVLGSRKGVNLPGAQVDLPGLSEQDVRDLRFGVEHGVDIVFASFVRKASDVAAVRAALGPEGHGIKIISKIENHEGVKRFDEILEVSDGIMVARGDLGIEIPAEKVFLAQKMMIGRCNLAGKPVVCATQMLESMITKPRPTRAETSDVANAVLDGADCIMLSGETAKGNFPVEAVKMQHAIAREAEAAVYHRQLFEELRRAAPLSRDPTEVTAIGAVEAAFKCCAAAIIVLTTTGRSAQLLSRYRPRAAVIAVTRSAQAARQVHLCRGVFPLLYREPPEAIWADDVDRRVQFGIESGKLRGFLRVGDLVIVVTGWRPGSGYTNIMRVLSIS
Protocol: The binding kinetics of IV were further validated with fluorescence titration experiments conducted with recombinant PKL. As previously reported, SBD‐tagged PKL ligands fluorescence upon binding to the allosteric pocket,^[ [43] ^] enabling K D determination by saturation binding. […] Association kinetics were then measured by adding tracer IV to PKL and monitoring fluorescence over time. Data were fit using an exponential association model (Equation S2),^[ [49] ^] and k on was derived from the reciprocal analysis of recorded k obs values. The k off was subsequently calculated (Equation S3).^[ [49] ^] The fluorescent binding experiments were consistent with SPR results, confirming a mid‐nanomolar K D of IV.
Titrations of tracer IV were performed in the presence and absence of 10 µM FBP. […] PKL was prepared as a 2x working solution at a constant concentration used throughout the titration. Equal volumes (10 µL) of 2x tracer and 2x PKL solutions were mixed (1:1) in 384-well microplates (Corning Black PS, 3820). For each experiment, three 12-point triplicate series were prepared containing either: (1) tracer IV and buffer (no PKL), (2) tracer IV and PKL (0.1 µM), (3) tracer IV and PKL (0.1 µM) and mitapivat (10 µM, competitor control). […] Titration data were analyzed in Origin(Pro) 2023^[8] and fitted to the Hill equation to determine EC₅₀ values.

How did the “decrease of fluorescence intensity” value (HEK293 cells) turn out when `CN(C)c1ccc(S(=O)(=O)c2ccc3c(=O)n(Cc4cc[nH]n4)ncc3c2)c2nonc12` [Compound IV, 2-((1H-Pyrazol-3-yl)methyl)-6-((7-(dimethylamino)benzo[c][1,2,5]oxadiazol-4-yl)sulfonyl)phthalazin-1(2H)-one] was run?
The value was “approximately 6%”.

What about the “PKM2 E max” value (PKM2; recombinant PKM2) of the same compound?
Its value is 449 % of vehicle.

And the EC50 (PKM2; recombinant PKM2 10 nM, 15 min pre-incubation, PEP 0.1 mM, ADP 0.2 mM)?
The EC50 was 17 nM.

And the “effect of FBP on binding affinity” value (PKL; PKLwt, with and without 10 µM FBP)?
The value was “no significant change in binding affinity”.

And the koff (PKL; calculated from K D and k on (Equation S3), read-out: k off fluorescence titration (PKL) (converted))?
Its koff is 0.00865 s⁻¹.

What about the kon (PKL; from k obs values) of the same compound?
The kon was 206000 M⁻¹ s⁻¹.

What about the Kd (PKL; recombinant PKL, Hill fit, read-out: K D fluorescence titration (PKL)) of the same compound?
The Kd was 42 ± 7 nM.
